Reference: the supplement of paper PMC10627819

Assays:
[1] = test system: B. subtilis 168; assay: Bliss interaction score (quartile over a dose matrix) (fitness difference); higher = more antagonism (negative = synergy)
Outline: (§1)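 OD595 was read at entry into stationary phase and expressed relative to the robust mean of the no-drug wells on the same plate, capped at 1. The resulting ratio is the fitness value. The Bliss score, observed fitness minus product-based expected fitness with single-drug fitness inferred from combinations, is summarised by quartiles over technical, biological and donor/recipient replicates.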

[2] = test system: S. aureus Newman; assay: as above
Outline: as §1

[3] = test system: S. aureus DSM 20231; assay: as above
Outline: as §1

[4] = test system: S. pneumoniae D39V; assay: as above
Outline: as §1

[5] = test system: B. subtilis 168; assay: fitness (endpoint OD595 vs no drug) (fraction); higher = more growth
Outline: (§2)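 At 37 °C, bacteria in TSB, LB Lennox or CY were grown in 384-well plates from a starting OD595 of 0.01. OD595 was measured every 30 min for 14 h, with the first reading used as background. Fitness is the optical density at the switch to stationary phase as a fraction of the robust mean of no-drug control wells, capped at 1.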

[6] = test system: S. aureus Newman; assay: as above
Outline: as §2

[7] = test system: S. aureus DSM 20231; assay: as above
Outline: as §2

[8] = test system: S. pneumoniae D39V; assay: as above
Outline: as §2
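For Bliss interaction score (quartile over a dose matrix) in this document: first quartile when negative (synergy) and third quartile when positive (antagonism).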

C[C@@H]1O[C@@H]1P(=O)(O)O [Fosfomycin] + Cc1ncc([N+](=O)[O-])n1CCO [Metronidazole]
Details | Bliss interaction score
[1] | 0.0663
[2] | -0.0452
[3] | -0.0362
[4] | 0.0507

fitness
Details | partner 0.625 µg/mL | partner 1.073 µg/mL | partner 1.25 µg/mL | partner 2.145 µg/mL | partner 2.5 µg/mL | partner 4.29 µg/mL | partner 5 µg/mL
[5], first compound 1.562 µg/mL | 0.72 | – | 0.687 | – | 0.701 | – | –
[5], first compound 3.124 µg/mL | 0.679 | – | 0.627 | – | 0.634 | – | –
[5], first compound 6.248 µg/mL | 0.583 | – | 0.573 | – | 0.481 | – | –
[6], first compound 0.781 µg/mL | 0.58 | – | 0.636 | – | 0.612 | – | –
[6], first compound 1.562 µg/mL | 0.502 | – | 0.511 | – | 0.453 | – | –
[6], first compound 3.124 µg/mL | 0.133 | – | 0.079 | – | 0.0859 | – | –
[7], first compound 0.781 µg/mL | 0.785 | – | 0.783 | – | 0.852 | – | –
[7], first compound 1.562 µg/mL | 0.605 | – | 0.624 | – | 0.682 | – | –
[7], first compound 3.124 µg/mL | 0.497 | – | 0.493 | – | 0.493 | – | –
[8], first compound 1.25 µg/mL | – | 0.957 | 0.975 | 0.94 | 0.992 | 0.95 | 1
[8], first compound 2.5 µg/mL | – | 0.929 | 0.97 | 0.798 | 0.965 | 0.914 | 0.995
[8], first compound 5 µg/mL | – | 0.87 | 0.857 | 0.893 | 0.886 | 0.864 | 0.847

fitness, [6], one replicate
Details | first compound 0.781 µg/mL | first compound 1.562 µg/mL | first compound 3.124 µg/mL
partner 0.781 µg/mL | 0.587 | 0.579 | 0.211
partner 1.562 µg/mL | 0.565 | 0.538 | 0.236
partner 3.124 µg/mL | 0.584 | 0.546 | 0.272
